In patent publication US9212209B2, “Screening methods for spinal muscular atrophy” (Indiana University Research and Technology Corporation, priority 2012, dated 2015):
Converted amounts (≈) assume the structure as drawn. “And” between values parts separate entries of the source, which are not always exact repeats. Equal entries are not always repeated. Where two headings read alike, the source gives them in different places.

Experiments:
[1] = test system: SMN2-luciferase reporter; assay: SMN2-luciferase reporter assay (clonal HEK-293 SMN2-luc cells); format: cell-based, human; design: increase of luciferase activity: dose or concentration left out as unconfirmed; settings: for Maximum % activation: Table 7; for Na-But RLU ave: 0.5 mg/mL sodium butyrate; for S/B: 0.5 mg/mL sodium butyrate vs DMSO
[2] = Solubility in PBS / aqueous solution; format: physicochemical
[3] = test system: SMA mice; assay: SMA mice, intraperitoneal dosing: lifespan, weight, time to right; format: in vivo, mouse; settings: for lifespan / weight of the treated animals: IP once daily post-natal day 1-10, compounds in 20% DMSO, words; for lifespan: 3-4 animals each; for Time to right: individual pup, raw data
Procedure: The animal studies included new derivatives of LDN-76070 and LDN-75654. Mice were injected intraperitoneally once daily from post-natal day 1-10. […] Compounds LDN-212014, LDN-212016, LDN-212351, and LDN-212391 were injected into a cohort of animals (3-4 each). […] In the Kaplan-Meier curve that DMSO control decreased survival by 50%—the compounds were in […] (FIG. 26A).
LDN-212014 and LDN-76070 were further tested in A7 SMA model mice. Mice were dosed using compounds dissolved in 100% DMSO injected at 20 mg/kg with each dose administered once daily by intraperitoneal injection. As shown in the black curves in the Kaplan-Meier plot, control animals lived 4-5 days longer than the DMSO vehicle treated animals, indicating toxicity. […] In fact, the compounds display a statistically significant increase in survival compared with the untreated animals. These compounds extend the lifespan of SMA mice despite the DMSO toxicity.
In ‘time to right’ experiments, animals are placed on their backs and the duration for animals to right themselves is recorded. Animals that are unable to right in less than 30 seconds are scored as a failure. DMSO treated animals were unable to right themselves, while a small percentage of untreated animals display the ability to right themselves for up to postnatal day (PND) 11. A larger percentage of treated animals can right themselves past PND 17, and in the case of one animal as late as PND 21.

[4] = Liver microsome stability; settings: for Stabilityin liver microsomes: Table 8; for Stability: Table 9; for half-life: mouse, liver microsomes
[5] = test system: SMN2-luciferase reporter; assay: SMN2-luciferase reporter assay (clonal HEK-293 SMN2-luc cells); format: cell-based, human; settings: for S/B: 0.5 mg/mL sodium butyrate vs DMSO
[6] = test system: SMN-luciferase transcripts; assay: qRT-PCR of SMN-luciferase transcripts in SMN2-luc cells; format: cell-based, human; settings: 24 hours, relative to DMSO, normalized to GAPDH, aclarubicin at 300 nM, words
Procedure: Compounds were tested at three concentrations that display maximal activity in the luciferase assay. Cells were treated as described above for the luciferase assay. Cells were harvested by trypsinization, neutralized with trypsin inhibitor, and washed. RNA was isolated from the cells using TRIZOL Reagent (Invitrogen 15596-026). cDNA was generated using the IMPROM-II Reverse Transcription System (Promega A3801).
The forward primer pair recognizes the exon 5-6 junction, which includes a restriction site that was engineered into the reporter and will exclude amplification of endogenous SMN mRNA. The reverse primers recognize either exon 7 or luciferase for detection of full-length or total SMN-luciferase transcripts respectively. For a reference control, cDNA from the housekeeping gene glyceraldehyde-3-phosphate dehydrogenase (GAPDH) was amplified. The primers used include SMN exon5-forward ([…]) (SEQ ID NO: 3), luciferase-reverse ([…]) (SEQ ID NO: 4), exon7-reverse ([…]) (SEQ ID NO: 5), GAPDH-reverse (G3A) ([…]) (SEQ ID NO: 6) and GAPDH-forward (G3S) ([…]) (SEQ ID NO: 7). qPCR was performed as described in the protocol for iQ SYBRGREEN SUPERMIX (Biorad 170-8882) using an EPPENDORF Mastercycler ep realplex^4 Thermo Cycler. Reactions were incubated for a 10 minute, 94° C. hot start followed by 45 cycles of the following: 94° C. for 45 second, 60° C. for 15 seconds, 72° C. for 45 seconds. Melting curves for each reaction were obtained. Each sample was assayed in triplicate and every plate contained a 5-point cDNA dilution course to calculate amplification efficiency for each primer pair. The Pfaffl method was used to determine the change in transcript levels relative to the DMSO and normalized to GAPDH (Pfaffl, M. W., “A new mathematical model for relative quantification in real-time RT-PCR,” Nucleic Acids Res 2001, 29(9), 3e45).
Based on the new reporter design, it was predicted that this screen could detect increased SMN-luciferase protein levels caused by compounds that stimulate SMN2 transcription, exon 7 inclusion, or by increasing the half-life of the SMN mRNA or protein. Quantitative reverse transcriptase PCR (qRT-PCR) was used to analyze SMN-luciferase mRNAs. All assays used RNA from control and compound-treated SMN2-luc cells and primers pairs were chosen to amplify only the SMN-luciferase derived transcripts (FIG. 4A). A pair of primers were used that specifically detects both full-length (exon 7 included) and Δ7 (exon 7 excluded) SMN-luciferase transcripts (primers 1 and 3). To measure changes in exon 7 splicing efficiency, a primer pair was used that detects only the full-length (exon 7 included) SMN-luciferase transcript (primers 1 and 2).
For each sample, the percent increase in the amount of total SMN-luciferase transcripts (gray bar) and exon 7 included full-length SMN-luciferase transcripts (white bar) was plotted (FIG. 4). Compounds that increase transcription should show increased total SMN-luciferase transcripts (gray bar) with a proportional increase for exon 7 included transcripts (white bar), assuming that proper splicing of exon 7 is not rate limiting. Compounds that stimulate exon 7 inclusion should increase the amount of exon 7 included full-length transcript (white bar) detected with little to no change in the expression of total SMN-luciferase transcripts (gray bar). In these experiments, cells were treated with compound, harvested, and each cell pellet was divided for isolation of RNA and to assay luciferase activity. Each qRT-PCR sample was normalized to the housekeeping gene glyceraldehyde-3-phosphate dehydrogenase (GAPDH). The Pfaffl method was used to calculate the change in the amount of total SMN mRNA and determine whether compound treatments increased SMN transcripts.

[7] = Homo sapiens, HEK293, Table 7, read-out: EC50
[8] = Homo sapiens, HEK293, reporter assay, Table 6, read-out: Ec50
[9] = PBS, aqueous buffer, read-out: Maximal solubility in PBS
[10] = aqueous solution, Table 8, grades, read-out: Solubility in aqueous solution
[11] = T1/2 in liver microsomes, Table 7
[12] = 96-well validation, 25,000 cells per well, 24 hrs
[13] = 96-well validation, 25,000 cells per well, 48 hrs
[14] = 96-well validation, 50,000 cells per well, 24 hrs
[15] = 96-well validation, 50,000 cells per well, 48 hrs
[16] = 384-well LDDN screen, 10,000 cells per well, 24 hrs
[17] = 384-well validation, 5,000 cells per well, 24 hrs
[18] = 384-well validation, 10,000 cells per well, 24 hrs

| Structure (SMILES) | EC50 [1, 7] [µM] | EC50 [1, 8] [µM] | Maximum % activation [1] [%] | Active ([1]; reporter assay, Table 6) | solubility [2, 9] [µM] | solubility [2, 10] [µM] | lifespan [3] | weight of the treated animals [3] | Time to right ([3]; PND 6) | Time to right ([3]; PND 7) | Time to right ([3]; PND 8) | Time to right ([3]; PND 9) | Time to right ([3]; PND 10) | Time to right ([3]; PND 11) | Time to right ([3]; PND 12) | Time to right ([3]; PND 13) | Time to right ([3]; PND 14) | Time to right ([3]; PND 15) | Time to right ([3]; PND 16) | Time to right ([3]; PND 17) | further results |
| --- | --- | --- | --- | --- | --- | --- | --- | --- | --- | --- | --- | --- | --- | --- | --- | --- | --- | --- | --- | --- | --- |
| COc1cc2c(c(OC)c1OC)C(c1cc(Cl)ccc1F)CC(=O)N2 (stereo not shown) [LDN-212351] | 9.8 | 12 | 168.5 ± 10.6 | Yes | 500 (≈ 183 µg/mL) | < 500 | extension of lifespan | increased | dead and Fail (Fail = >30 sec) (2×) and 3 seconds | dead and Fail (Fail = >30 sec) (2×) and 5 seconds | dead and Fail (Fail = >30 sec) (3×) | dead and 13 seconds and Fail (Fail = >30 sec) (2×) | dead and Fail (Fail = >30 sec) (3×) | dead (3×) and Fail (Fail = >30 sec) | dead (3×) and Fail (Fail = >30 sec) | dead (3×) and Fail (Fail = >30 sec) | dead (3×) and Fail (Fail = >30 sec) | dead | dead | dead | Emax ([1]; Homo sapiens, HEK293, reporter assay, Table 6, read-out: Max % Activity): 150%; Time to right ([3]; PND 18): dead; Time to right ([3]; PND 19): dead; Time to right ([3]; PND 20): dead; Stabilityin liver microsomes [4]: 45 min; Stability [4]: 45 min; half-life [4, 11]: 45 min; half-life ([4]; t1/2 in mouse liver microsomes, mouse liver microsomes): 45 min |
| COc1cc2c(c(OC)c1OC)C(c1cc(Cl)ccc1F)NC(=O)N2 (stereo not shown) [LDN-212391] | 5 | 4.4 | 238.3 ± 28.5 | Yes | 1000 (≈ 367 µg/mL) | 500 to 2000 (≈ 183 to 734 µg/mL) | extension of lifespan | increased | Fail (Fail = >30 sec) | Fail (Fail = >30 sec) | Fail (Fail = >30 sec) | Fail (Fail = >30 sec) (2×) and 18 seconds | Fail (Fail = >30 sec) (2×) and 20 seconds | Fail (Fail = >30 sec) | dead and Fail (Fail = >30 sec) (2×) | dead and Fail (Fail = >30 sec) (2×) | dead and Fail (Fail = >30 sec) (2×) | dead and Fail (Fail = >30 sec) (2×) | dead (2×) and Fail (Fail = >30 sec) | dead (2×) and Fail (Fail = >30 sec) | Max % Activity ([1]; reporter assay, Table 6): 267%; Time to right ([3]; PND 18): dead (2×) and Fail (Fail = >30 sec); Time to right ([3]; PND 19): dead (2×) and Fail (Fail = >30 sec); Time to right ([3]; PND 20): dead; Stabilityin liver microsomes [4]: 13 to 20 min; Stability [4]: 13 to 20 min; half-life [4, 11]: 13 min |
| CCCC(=O)[O-].[Na+] [Na-But] | – | – | – | – | – | – | – | – | – | – | – | – | – | – | – | – | – | – | – | – | Na-But RLU ave [1, 12]: 2046 RLU; Na-But RLU ave [1, 13]: 3696 RLU; Na-But RLU ave [1, 14]: 4798 RLU; Na-But RLU ave [1, 15]: 7505 RLU; Na-But RLU ave [1, 16]: 13894 RLU; Na-But RLU ave [1, 17]: 1332 RLU; Na-But RLU ave [1, 18]: 39287 RLU; Na-But RLU ave ([5]; 0.5 mg/mL sodium butyrate, 384-well validation, 7,500 cells per well, 24 hrs): 2832 RLU |
| CCCC(=O)[O-].[Na+] [sodium butyrate, reference compound] | – | – | – | – | – | – | – | – | – | – | – | – | – | – | – | – | – | – | – | – | S/B [1, 12]: 3.0; S/B [1, 14]: 3.5; S/B [1, 15]: 2.9; S/B [1, 17]: 2.6; S/B [1, 18]: 4.9; increase of luciferase activity ([1]; 96-well format, sodium butyrate): more than 3 fold; EC50 ([1]; Homo sapiens, HEK293): 1000 µg/mL; Max. fold increase ([1]; cell-based reporter response to known SMN2 modulating compounds): 10 fold; S/B [5, 13]: 2.6; S/B [5, 16]: 3.0; S/B ([5]; 384-well validation, 7,500 cells per well, 24 hrs): 2.8; exon 7 included full-length SMN-luciferase transcripts [6]: increased; total SMN-luciferase transcripts [6]: increased |
